# Source: patent US10294234B2, “HIV inhibitor compounds” (priority 2017, dated 2019)
# Experiments:
# in vivo [1] = details: rat, in vivo; for Vd / RAT PO F: male, SD; for Vd / RAT IV CL / RAT IV T1/2: iv; for RAT PO F: 2.5 mg/kg
# Description: Each dosing group consisted of 3 male naïve SD Rats. At dosing, the animals weighed between 0.27 to 0.32 kg. The animals were fasted overnight prior to dose administration. The test article was administered by intravenous infusion over 30 min. The rate of infusion was adjusted according to the body weight of each animal to deliver a dose of 0.5 or 1.0 mg/kg. For the oral dosing group, the test article was administered to animals by oral gavage administration. Serial venous blood samples (approximately 0.30 mL each) were taken at predose and 0.25, 0.48, 0.58, 0.75, 1.5, 3, 6, 8, 12 and 24 hours post dose for the IV dosing group animals. Blood samples were taken at predose, 0.25, 0.50, 1, 2, 4, 6, 8, 12 and 24 hours post dose for the oral group animals. The blood samples were collected into Vacutainer™ tubes containing EDTA-K2 as the anti-coagulant and were immediately placed on wet ice pending centrifugation for plasma. An LC/MS/MS method was used to measure the concentration of test compound in plasma. Non-compartmental pharmacokinetic analysis was performed on the plasma concentration-time data.
# [2] = system: HIV-1 (IIIB) in MT-4 cells; test: MT-4 HIV assay; type: cell-based; details: Human immunodeficiency virus 1, MT4, 120 h; HIV-1 (IIIB), MT-4 cells, 5 days, Cell Titer Glo; read-out: EC50
# Procedure, shortened: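 Antiviral activity was read by Cell Titer Glo after a 5-day, 37 °C culture of MT-4 cells pre-infected with a 1:250 dilution of HIV-1 (IIIB). Compounds were tested as threefold dilution series in complete RPMI. Controls were no drug, mock infection and 5 uM AZT.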
# [3] = microsomes
# Procedure, shortened: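 Each compound (1 uM) is incubated in duplicate with 0.5 mg/mL liver microsomal protein from dog, rat or human plus NADPH-regenerating system. Samples taken at 2, 12, 25, 45 and 65 minutes are deproteinised and quantified by LC/MS/MS. Half-life gives Clint.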
# in vivo [4] = test: in vivo
# Description: Pharmacokinetic Profiling Dog PK
# Each dosing group consisted of three non-naïve male beagle dogs. At dosing, the animals weighed between 9 to 12 kg. The animals were fasted overnight prior to dose administration and up to four hours after dosing. The test article was administered by intravenous infusion over 30-minutes. The rate of infusion was adjusted according to the body weight of each animal to deliver a dose of 0.5 or 1.0 mg/kg. For the oral dosing group, the test article was administered by oral gavage at a dose volume of 2 mL/kg.
# Serial venous blood samples (approximately 1.0 mL each) were collected at predose and 0.25, 0.48, 0.58, 0.75, 1.0, 1.5, 2, 4, 8, 12 and 24 hours post dose from each animal for the IV dosing group; blood samples were collected at predose, 0.25, 0.50, 1, 2 4, 6, 8,12 and 24 hours post dose for the oral dosing group. The blood samples were collected into Vacutainer™ tubes containing EDTA-K2 as the anti-coagulant and were immediately placed on wet ice pending centrifugation for plasma. An LC/MS/MS method was used to measure the concentration of test compound in plasma. Non-compartmental pharmacokinetic analysis was performed on the plasma concentration-time data. VSS=apparent volume of distribution, t1/2=half life, F=oral bioavailability.
# [5] = 3H Human Predicted Clearance Assay (tritiated analogs); type: in vitro ADME; details: human, 1 uM
# Description: 3H Human Predicted Clearance Assay:
# For certain compounds, tritiated analogs (H^3) were prepared to further determined their human predicted clearance with increased resolution. Those studies were performed as described above using the tritiated analogs. Data from those compounds is found in Table 2 below and reported in FIG. 1 (note ATV and DRV were not tritiated).
compound,measurement,setting,value
"COC(=O)N[C@H](C(=O)N[C@@H](Cc1ccc(C#Cc2ccc(N3CC4CCC(C3)N4C3COC3)nc2)cc1)[C@@H](O)CN(Cc1ccc(-c2cnn(C(F)F)c2)cc1)NC(=O)[C@@H](NC(=O)OC)C(C)(C)C(F)(F)F)C(C)(C)C(F)(F)F [Example 63, Methyl ((5S,8S,9S,14S)-11-(4-(1-(difluoromethyl)-1H-pyrazol-4-yl)benzyl)-16,16,16-trifluoro-9-hydroxy-15,15-dimethyl-8-(4-((6-(8-(oxetan-3-yl)-3,8-diazabicyclo[3.2.1]octan-3-yl)pyridin-3-yl)ethynyl)benzyl)-3,6,13-trioxo-5-(1,1,1-trifluoro-2-methylpropan-2-yl)-2-oxa-4,7,11,12-tetraazahexadecan-14-yl)carbamate]",Vd,in vivo [1],5.46 L/kg
same,RAT PO F,in vivo [1],19%
same,RAT IV CL,in vivo [1],0.42 L/h/kg
same,RAT IV T1/2,in vivo [1],11.9 h
same,EC50,[2],4.25 nM
same,Dog. Pred. Cl.,[3],0.86 L/H/kg
same,Human Pred Cl.,[3],<0.11 L/H/kg
same,Rat. Pred. Cl.,[3],0.2 L/H/kg
same,DOG IV CL,"in vivo [4]; dog, in vivo, iv",0.28 L/h/kg
same,DOG IV T1/2,"in vivo [4]; male beagle dogs, IV infusion over 30 minutes, 0.5 or 1.0 mg/kg",8.16 h
same,Vd,"in vivo [4]; male, beagle, dog, in vivo, iv",2.4 L/kg
"COC(=O)N[C@H](C(=O)N[C@@H](Cc1ccc(C#Cc2ccc(N3CC4CCC(C3)N4C3COC3)nc2)cc1)[C@@H](O)CN(Cc1c(F)cc(-c2ccccn2)cc1Cl)NC(=O)[C@@H](NC(=O)OC)C(C)(C)C(F)(F)F)C(C)(C)C(F)(F)F [Example 74, Methyl ((5S,8S,9S,14S)-11-(2-chloro-6-fluoro-4-(pyridin-2-yl)benzyl)-16,16,16-trifluoro-9-hydroxy-15,15-dimethyl-8-(4-((6-(8-(oxetan-3-yl)-3,8-diazabicyclo[3.2.1]octan-3-yl)pyridin-3-yl)ethynyl)benzyl)-3,6,13-trioxo-5-(1,1,1-trifluoro-2-methylpropan-2-yl)-2-oxa-4,7,11,12-tetraazahexadecan-14-yl)carbamate]",Vd,in vivo [1],5.07 L/kg
same,RAT PO F,in vivo [1],35.8%
same,RAT IV CL,in vivo [1],0.39 L/h/kg
same,RAT IV T1/2,in vivo [1],11.6 h
same,EC50,[2],6.79 nM
same,Dog. Pred. Cl.,[3],1.53 L/H/kg
same,Human Pred Cl.,[3],0.17 L/H/kg
same,Rat. Pred. Cl.,[3],0.2 L/H/kg
"COC(=O)N[C@H](C(=O)N[C@@H](Cc1ccc(C#Cc2ccc(N3CC4CCC(C3)N4C3COC3)nc2)cc1)[C@@H](O)CN(Cc1c(F)cc(-c2cn(C(F)F)cn2)cc1F)NC(=O)[C@@H](NC(=O)OC)C(C)(C)C(F)(F)F)C(C)(C)C(F)(F)F [Example 79, Methyl ((5S,8S,9S,14S)-11-(4-(1-(difluoromethyl)-1H-imidazol-4-yl)-2,6-difluorobenzyl)-16,16,16-trifluoro-9-hydroxy-15,15-dimethyl-8-(4-((6-(8-(oxetan-3-yl)-3,8-diazabicyclo[3.2.1]octan-3-yl)pyridin-3-yl)ethynyl)benzyl)-3,6,13-trioxo-5-(1,1,1-trifluoro-2-methylpropan-2-yl)-2-oxa-4,7,11,12-tetraazahexadecan-14-yl)carbamate]",Vd,in vivo [1],4.07 L/kg
same,RAT PO F,in vivo [1],13.1%
same,RAT IV CL,in vivo [1],0.77 L/h/kg
same,RAT IV T1/2,in vivo [1],5.13 h
same,EC50,[2],3.53 nM
same,Human Pred Cl.,[3],<0.11 L/H/kg
same,Rat. Pred. Cl.,[3],<0.18 L/H/kg
"COC(=O)N[C@H](C(=O)N[C@@H](Cc1ccc(C#Cc2ccc(N3CC4CCC(C3)N4C3COC3)nc2)cc1)[C@@H](O)CN(Cc1c(F)cc(-c2ccccn2)cc1F)NC(=O)[C@@H](NC(=O)OC)C(C)(C)C(F)(F)F)C(C)(C)C(F)(F)F [Example 130, Methyl ((5S,8S,9S,14S)-11-(2,6-difluoro-4-(pyridin-2-yl)benzyl)-16,16,16-trifluoro-9-hydroxy-15,15-dimethyl-8-(4-((6-(8-(oxetan-3-yl)-3,8-diazabicyclo 3.2.1 octan-3-yl)pyridin-3-yl)ethynyl)benzyl)-3,6,13-trioxo-5-(1,1,1-trifluoro-2-methylpropan-2-yl)-2-oxa-4,7,11,12-tetraazahexadecan-14-yl)carbamate]",Vd,in vivo [1],5.27 L/kg
same,RAT PO F,in vivo [1],55.7%
same,RAT IV CL,in vivo [1],0.39 L/h/kg
same,RAT IV T1/2,in vivo [1],11.5 h
same,EC50,[2],3.41 nM
same,Human Pred Cl.,[3],0.32 L/H/kg
same,Rat. Pred. Cl.,[3],<0.18 L/H/kg
"COC(=O)N[C@H](C(=O)N[C@@H](Cc1ccc(C#Cc2cnc(N3CC4CCC(C3)N4C3COC3)c(C)c2)cc1)[C@@H](O)CN(Cc1c(F)cc(-c2cnn(C(F)F)c2)cc1F)NC(=O)[C@@H](NC(=O)OC)C(C)(C)C(F)(F)F)C(C)(C)C(F)(F)F [Example 153, Methyl ((5S,8S,9S,14S)-11-(4-(1-(difluoromethyl)-1H-pyrazol-4-yl)-2,6-difluorobenzyl)-16,16,16-trifluoro-9-hydroxy-15,15-dimethyl-8-(4-((5-methyl-6-(8-(oxetan-3-yl)-3,8-diazabicyclo[3.2.1]octan-3-yl)pyridin-3-yl)ethynyl)benzyl)-3,6,13-trioxo-5-(1,1,1-trifluoro-2-methylpropan-2-yl)-2-oxa-4,7,11,12-tetraazahexadecan-14-yl)carbamate]",3H Human Predicted Cl.,[5],0.43
"COC(=O)N[C@H](C(=O)N[C@@H](Cc1ccc(C#Cc2ccc(N3CC4COCC(C3)N4C3COC3)nc2)cc1)[C@@H](O)CN(Cc1c(F)cc(-c2ccn(C(F)F)n2)cc1F)NC(=O)[C@@H](NC(=O)OC)C(C)(C)C(F)(F)F)C(C)(C)C(F)(F)F [Example 180, Methyl ((5S,8S,9S,14S)-11-(4-(1-(difluoromethyl)-1H-pyrazol-3-yl)-2,6-difluorobenzyl)-16,16,16-trifluoro-9-hydroxy-15,15-dimethyl-8-(4-((6-(9-(oxetan-3-yl)-3-oxa-7,9-diazabicyclo[3.3.1]nonan-7-yl)pyridin-3-yl)ethynyl)benzyl)-3,6,13-trioxo-5-(1,1,1-trifluoro-2-methylpropan-2-yl)-2-oxa-4,7,11,12-tetraazahexadecan-14-yl)carbamate]",Vd,in vivo [1],0.52 L/kg
same,RAT PO F,in vivo [1],4.29%
same,RAT IV CL,in vivo [1],0.39 L/h/kg
same,RAT IV T1/2,in vivo [1],2.81 h
same,EC50,[2],3.69 nM
same,Human Pred Cl.,[3],<0.11 L/H/kg
same,Rat. Pred. Cl.,[3],<0.18 L/H/kg
"COC(=O)N[C@H](C(=O)NN(Cc1c(F)cc(-c2ccn(C(F)F)n2)cc1F)C[C@H](O)[C@H](Cc1ccc(C#Cc2cnc(N3CC4CCC(C3)N4C3COC3)nc2)cc1)NC(=O)[C@@H](NC(=O)C1CC1)C(C)(C)C(F)(F)F)C(C)(C)C(F)(F)F [Example 221, Methyl ((2S)-1-(2-((2S,3S)-3-((S)-2-(cyclopropanecarboxamido)-4,4,4-trifluoro-3,3-dimethylbutanamido)-2-hydroxy-4-(4-((2-(8-(oxetan-3-yl)-3,8-diazabicyclo[3.2.1]octan-3-yl)pyrimidin-5-yl)ethynyl)phenyl)butyl)-2-(4-(1-(difluoromethyl)-1H-pyrazol-3-yl)-2,6-difluorobenzyl)hydrazinyl)-4,4,4-trifluoro-3,3-dimethyl-1-oxobutan-2-yl)carbamate]",Vd,in vivo [1],4.41 L/kg
same,RAT PO F,in vivo [1],19.9%
same,RAT IV CL,in vivo [1],0.32 L/h/kg
same,RAT IV T1/2,in vivo [1],11.5 h
same,EC50,[2],4.49 nM
same,Dog. Pred. Cl.,[3],0.14 L/H/kg
same,Human Pred Cl.,[3],<0.11 L/H/kg
same,Rat. Pred. Cl.,[3],0.28 L/H/kg
